Patent US20260102400A1, “PHARMACEUTICAL COMPOSITION FOR DISRUPTING TUMOR BLOOD VESSELS” (SAMSUNG MEDICAL FOUNDATION, priority 2022, published 2026)
Entries after “also recorded” stand apart in the source; their conditions may differ.

Columns and labels:
[1] = Pathological changes in subcutaneous muscle layer after injection (H&E); type: in vivo, nude mice; parameters: key: 0=absent; 1=mild; 2=moderate; 3=severe; conditions: 5 mg pH 8.4 5-FU near the tumor; 24 hours; degeneration, necrosis, inflammation, fibrosis
Method: To observe pathological changes in the surrounding tissue after injecting 5 mg of pH 8.4 5-FU near the tumor, the drug was locally administered to nude mice. After 24 hours, tissues, including muscle layers, were collected and subjected to H&E staining to examine degeneration, necrosis, inflammation, and fibrosis in the muscle layer. The extent of each pathological change was scored as follows: 0=absent, 1=mild, 2=moderate, 3=severe, and the results are shown in FIG. 10A and FIG. 10B. FIG. 10A presents observations at 40× magnification, while FIG. 10B presents observations at 100× magnification.

CD31 = CD31 immunohistochemical staining of gastric tumor mass after local injection; conditions: one week after injection
HUVECs [2] = test: MTS cell proliferation assay, 5-FU at different pH; type: cell-based, human; conditions: 5 μM 5-FU, pH 6.4, 7.4, 8.4, 9.0, FIG. 5
Method: To evaluate the cytotoxic effect of 5-fluorouracil (5-FU) in human umbilical vein endothelial cells (HUVECs) under different pH conditions, an MTS cell proliferation assay was performed. The cytotoxicity of 5 μM 5-FU at various pH levels in HUVECs was assessed using the CellTiter 96 AQueous One Solution Cell Proliferation Assay (Promega Corp., Madison, WI, USA).
HUVECs were seeded in a 96-well plate at a density of 5×10^3 cells/well and incubated for 24 hours. Subsequently, the cells were cultured for an additional 24 hours in Dulbecco's Modified Eagle's Medium (DMEM) containing 5-FU at different pH conditions (pH 6.4, 7.4, 8.4, and 9.0). Following the incubation, the cells were washed twice with phosphate-buffered saline (PBS), after which 100 μL of fresh DMEM growth medium was added, followed by an additional 48-hour incubation. The medium was then replaced with 100 μL of fresh DMEM growth medium, and 20 μL of 3-(4,5-dimethylthiazol-2-yl)-5-(3-carboxymethoxyphenyl)-2-(4-sulfophenyl)-2H-tetrazolium (MTS) solution (Promega Corp., Madison, WI, USA) was added. After an additional 2-hour incubation, the absorbance was measured at 490 nm using a microplate reader (Model 680, BIO-RAD; Spark, TECAN, CA, USA).

HUVECs [3] = test: LDH release assay in HUVECs; type: cell-based, human; conditions: 1 mM, 5 mM and 10 mM 5-FU, P<0.05, FIG. 4
Method: To investigate whether the administration of 5-fluorouracil (5-FU) enhances apoptosis in endothelial cells, an LDH release assay was conducted in human umbilical vein endothelial cells (HUVECs). Cytotoxicity was assessed based on the amount of lactate dehydrogenase (LDH) released due to cell membrane damage. The released LDH was quantified using an LDH assay kit (EZ-LDH1000; DoGenBio, Seoul, Korea) according to the manufacturer's protocol.
HUVECs (5×10^4 cells/well) were seeded in a 96-well polystyrene plate and incubated at 37° C. for 24 hours. LDH substrate was added to each well, followed by an additional incubation at 37° C. for 10 minutes. The plate was centrifuged at 600 g for 5 minutes. A 10-μL aliquot of the supernatant was transferred from the culture plate wells to an analysis plate. Subsequently, 100 μL of LDH reaction mixture reagent was added to the supernatant in each well of the analysis plate. After a 30-minute reaction, absorbance was measured at 450 nm using a microplate reader (Model 680; Bio-Rad). The cytotoxicity of 5-FU on HUVECs was determined based on the amount of LDH released.

TSP-1 protein = test: Western blot of TSP-1 protein expression in HUVEC; type: cell-based, human; conditions: HUVECs; prolonged exposure and higher 5-FU concentrations; FIG. 3
Method: Western blot analysis was conducted to confirm the expression of TSP-1 protein in the HUVEC (human umbilical vein endothelial cell) cell line.
HUVECs cultured in petri dishes were lysed using a buffer containing 50 mM Tris (pH 8.0), 150 mM NaCl, 1% Nonidet P-40, 0.5% sodium deoxycholate (SDC), 0.1% sodium dodecyl sulfate (SDS), and 1× protease inhibitor cocktail. The lysates were incubated on ice for 30 minutes, followed by centrifugation at 14,000 g for 10 minutes to collect the supernatant.
Protein quantification was performed using a bicinchoninic acid (BCA) protein assay kit (Pierce Chemical, Rockford, IL, USA). A total of 30 μg of protein was subjected to electrophoresis on a 10% SDS-polyacrylamide gel and subsequently transferred onto a nitrocellulose membrane. The membrane was blocked with blocking milk for 1 hour, then incubated with the same TSP-1 antibody used for immunostaining at room temperature for 1 hour. After three washes with Tris buffer containing 0.1% Tween 20 at 15-minute intervals, the membrane was incubated with a secondary antibody specific to the primary antibody at room temperature for 1 hour. The detection was carried out using a chemiluminescent substrate (Amersham Life Science, Arlington Heights, IL, USA).
Protein extracted from HUVECs was used as a positive control.

VEGF = VEGF immunohistochemical staining of gastric tumor mass after local injection; conditions: one week after injection
HUVECs [4] = conditions: various concentrations of L-NMMA, FIG. 11
Method: HUVECs were seeded at a density of 5×10^3 cells/well in a 96-well plate and incubated for 24 hours. Subsequently, the cells were incubated in DMEM medium containing various concentrations of L-NMMA for 24 hours. The cells were then washed twice with PBS, followed by the addition of 100 μL of fresh growth DMEM medium, and incubated for an additional 48 hours. The medium was replaced with 100 μL of fresh growth DMEM medium, after which 20 μL of 3-(4,5-dimethylthiazol-2-yl)-5-(3-carboxymethoxyphenyl)-2-(4-sulfophenyl)-2H-tetrazolium (MTS) was added. After an additional 2-hour incubation, absorbance at 490 nm was measured using a BIO-RAD Model 680 microplate reader (Spark, TECAN, CA, USA).

[5] = test system: human gastric cancer cells; test: Human gastric cancer xenograft, alkaline 5-FU injected adjacent to tumor; type: in vivo, nude mice; conditions: 5 mg 5-FU pH 8.4, adjacent to tumor, three times at one-week intervals; P<0.05
Method: The animals used in the experiment were six male nude mice (Crj: BALB/c-nu/nu mice, male) aged five weeks and weighing approximately 30 grams, purchased from Orient. The mice were subjected to a one-week acclimation period in the laboratory before use. Each nude mouse was subcutaneously xenografted with 5×10^6 human gastric cancer cells suspended in 100 μL of PBS on the dorsal subcutaneous layer. The tumor size was periodically measured, and when it reached a diameter of 1 cm, the drug administration experiment was conducted.
The experimental animals were divided into two groups. One group served as the control group, receiving only physiological saline, while the other group was administered 5 mg of 5-FU at pH 8.4. The drug was injected 0.2 cc adjacent to the tumor three times at one-week intervals. After one month, the major and minor axes of the tumors growing on the dorsal epidermis were measured.

[6] = test system: human gastric cancer cells; test: Human gastric cancer xenograft, bevacizumab; type: in vivo, nude mice
Method: The animals used in the experiment were three male nude mice (Crj: BALB/c-nu/nu, male), each weighing approximately 30 g and five weeks old, produced by Orient. The mice underwent a one-week acclimatization period in the laboratory before use. Human gastric cancer cells (5×10^6 cells/100 μL in PBS) were xenografted into the subcutaneous fat layer on the dorsal side of each nude mouse. The tumor size was measured periodically, and drug administration was initiated when the tumor reached a diameter of 1 cm.
The experimental animals were administered 1 mg of bevacizumab by injecting 0.2 cc adjacent to the tumor three times at one-week intervals.

[7] = 5 mg 5-FU at base of tumor, relative to total tissue area

## O=c1[nH]cc(F)c(=O)[nH]1 [5-FU, 5-fluorouracil]
[1]
  pathological changes in subcutaneous muscle layer at injection site (score): 0
CD31; 5 mg 5-FU at base of tumor
  Immunopositive area (CD31): 257079.525 μm^2
CD31; [7]
  Immuno-positive area (%) (CD31): 0.54%
CD31; 5 mg 5-FU
  stained area (ratio) of CD31 compared to control group: lower; also recorded: smaller
CD31; 5 mg 5-FU, tumor mass
  distribution of necrotic tissue compared to control group: increased
HUVECs [2]
  cytotoxic effect according to pH: significantly greater toxicity under alkaline conditions compared to neutral or acidic 5-FU
HUVECs [3]
  amount of LDH released: increased in a time-dependent manner
TSP-1 protein
  TSP-1 expression: increased
VEGF; 5 mg 5-FU at base of tumor
  Immunopositive area (VEGF): 46077.917 μm^2
VEGF; [7]
  Immuno-positive area (%) (VEGF): 0.10%
VEGF; 5 mg 5-FU
  stained area of VEGF compared to control group: smaller

## CNC(=N)NCCC[C@H](N)C(=O)O [L-NMMA, NG-Monomethyl-L-arginine]
HUVECs [4]
  cell viability, L-NMMA alone: reduction in cell viability

## O=c1[nH]cc(F)c(=O)[nH]1 [alkaline 5-FU, 5-fluorouracil]
[5]
  tumor size compared to control group that received PBS: reduced
  tumor size four weeks after drug administration compared to before injection: decreased

## bevacizumab: recombinant humanized monoclonal antibody designed to inhibit vascular endothelial growth factor (VEGF)
[6]; 1 mg bevacizumab adjacent to tumor, three times at one-week intervals, P>0.05
  tumor size four weeks after drug administration compared to before injection: remained nearly unchanged
[6]; 1 mg bevacizumab, months after the four-week reading
  tumor size in later follow-up: did not change for the following two months and began to increase in the third month
